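In this assay, cells in 96-well plates receive the compound at five concentrations for 48 hours. Endpoints are linearly interpolated between the surrounding concentrations. Here, GI50 denotes the concentration required for 50% inhibition of growth.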 Calls of active or inactive are those of the source. No stated cut-off is given here; in the data, active = GI50 up to about 1.1 µM and inactive = higher.
Columns and labels:
Test in all cases: NCI-60 cell line screen, 48 h
HOP-92 = system: HOP-92
BT-549 = system: BT-549
SW-620 = system: SW-620
SNB-75 = system: SNB-75
786-0 = system: 786-0
CCRF-CEM = system: CCRF-CEM
MDA-MB-435 = system: MDA-MB-435
MCF7 = system: MCF7
SN12C = system: SN12C
SK-MEL-2 = system: SK-MEL-2
OVCAR-3 = system: OVCAR-3
HCT-116 = system: HCT-116
EKVX = system: EKVX
NCI-H522 = system: NCI-H522
SF-295 = system: SF-295
TK-10 = system: TK-10
IGROV-1 = system: IGROV-1
SK-MEL-5 = system: SK-MEL-5
M14 = system: M14

Measured: GI50

NC(=O)C1CCCN1Cc1ccc2c(c1)OCO2 (centres undefined)
inactive: HOP-92 > 100 µM | BT-549 > 100 µM | SW-620 > 100 µM | SNB-75 > 100 µM | 786-0 > 100 µM | CCRF-CEM > 100 µM | MDA-MB-435 > 100 µM | MCF7 > 100 µM | SN12C > 100 µM | SK-MEL-2 > 100 µM | OVCAR-3 > 100 µM | HCT-116 > 100 µM | EKVX > 100 µM | NCI-H522 > 100 µM | SF-295 > 100 µM | TK-10 > 100 µM | IGROV-1 > 100 µM | SK-MEL-5 > 100 µM | M14 > 100 µM

O=C(CC(C(=O)c1cccs1)c1ccsc1)c1cccs1 (centres undefined)
inactive: HOP-92 94.2 µM | BT-549 81.8 µM | SW-620 81.7 µM | SNB-75 12.8 µM | 786-0 > 100 µM | CCRF-CEM 37.8 µM | MDA-MB-435 29.1 µM | MCF7 52.2 µM | SN12C > 100 µM | OVCAR-3 45 µM | HCT-116 29.9 µM | EKVX 28.8 µM | NCI-H522 54.2 µM | SF-295 42 µM | TK-10 > 100 µM | IGROV-1 > 100 µM | SK-MEL-5 47.3 µM | M14 > 10 µM

CC1(C)C2CCC1(C)C(NC(=O)CCN1CCOCC1)C2 (centres undefined)
inactive: HOP-92 > 100 µM | BT-549 > 100 µM | SW-620 > 100 µM | SNB-75 > 100 µM | 786-0 > 100 µM | CCRF-CEM > 100 µM | MDA-MB-435 > 100 µM | MCF7 > 100 µM | SN12C > 100 µM | OVCAR-3 > 100 µM | HCT-116 > 100 µM | EKVX > 100 µM | NCI-H522 > 100 µM | SF-295 > 100 µM | TK-10 > 100 µM | IGROV-1 > 100 µM | SK-MEL-5 > 100 µM | M14 > 100 µM

C=Cc1c(C)c2cc3nc(c4c5[nH]c(cc6nc(cc1[nH]2)C(C)=C6CC)c(C)c5C(=O)C4C(=O)OC)C(CCC(=O)OC)C3C (centres undefined)
inactive: HOP-92 > 100 µM | BT-549 > 100 µM | SW-620 > 100 µM | SNB-75 > 100 µM | 786-0 > 100 µM | CCRF-CEM > 100 µM | MDA-MB-435 > 100 µM | MCF7 > 100 µM | SN12C > 100 µM | SK-MEL-2 > 100 µM | OVCAR-3 > 100 µM | HCT-116 > 100 µM | EKVX > 100 µM | NCI-H522 > 100 µM | SF-295 > 100 µM | TK-10 > 100 µM | IGROV-1 > 100 µM | SK-MEL-5 > 100 µM | M14 > 100 µM

CC(=O)c1c(SCCN2CCCC2)n(-c2ccccc2)c(=S)n(-c2ccccc2)c1=O
inactive: HOP-92 3.27 µM | BT-549 14.5 µM | SW-620 2.34 µM | SNB-75 14.6 µM | 786-0 1.6 µM | CCRF-CEM 1.7 µM | MDA-MB-435 5.9 µM | MCF7 1.33 µM | SN12C 7.16 µM | SK-MEL-2 21.6 µM | OVCAR-3 2.5 µM | HCT-116 6.73 µM | EKVX 17 µM | NCI-H522 2.48 µM | SF-295 > 76 µM | TK-10 3.64 µM | IGROV-1 7.03 µM | SK-MEL-5 8.55 µM | M14 2.39 µM

C/C(=N\NC(N)=S)c1sc(-n2nc(-c3ccccc3)cc2-c2ccccc2)nc1C
inactive: HOP-92 > 100 µM | BT-549 > 100 µM | SW-620 > 100 µM | SNB-75 > 100 µM | 786-0 > 100 µM | CCRF-CEM 36.5 µM | MDA-MB-435 > 100 µM | MCF7 51.6 µM | SN12C > 100 µM | SK-MEL-2 > 100 µM | OVCAR-3 98.2 µM | HCT-116 55.8 µM | EKVX 50.1 µM | NCI-H522 79.4 µM | SF-295 > 100 µM | TK-10 > 100 µM | IGROV-1 16 µM | SK-MEL-5 76.4 µM | M14 > 100 µM

O=C(O)c1ccccc1/C=N\N=C1NCCN1
inactive: HOP-92 > 100 µM | BT-549 49.9 µM | SW-620 > 100 µM | SNB-75 > 100 µM | 786-0 > 100 µM | CCRF-CEM > 100 µM | MDA-MB-435 > 100 µM | MCF7 > 100 µM | SN12C > 100 µM | SK-MEL-2 > 100 µM | OVCAR-3 > 100 µM | HCT-116 > 100 µM | EKVX > 100 µM | NCI-H522 > 100 µM | SF-295 > 100 µM | TK-10 > 100 µM | IGROV-1 > 100 µM | SK-MEL-5 > 100 µM | M14 > 100 µM

CN1CCN(C(=S)N(C(=O)c2ccco2)c2ccccc2)CC1
inactive: HOP-92 > 100 µM | BT-549 > 100 µM | SW-620 > 100 µM | SNB-75 > 100 µM | 786-0 > 100 µM | CCRF-CEM > 100 µM | MDA-MB-435 > 100 µM | MCF7 > 100 µM | SN12C > 100 µM | SK-MEL-2 > 100 µM | OVCAR-3 > 100 µM | NCI-H522 > 100 µM | SF-295 > 100 µM | TK-10 > 100 µM | IGROV-1 > 100 µM | SK-MEL-5 > 100 µM | M14 > 100 µM

CCOC(=O)c1cn2c(n1)sc1cc(OC)ccc12
inactive: HOP-92 > 100 µM | BT-549 > 69.7 µM | SW-620 3.08 µM | SNB-75 33.2 µM | 786-0 6.21 µM | MDA-MB-435 1.18 µM | MCF7 5.13 µM | SN12C 7.41 µM | SK-MEL-2 14.9 µM | OVCAR-3 3.85 µM | HCT-116 5.42 µM | EKVX > 53.3 µM | NCI-H522 18 µM | SF-295 7.18 µM | TK-10 > 100 µM | IGROV-1 26.7 µM | SK-MEL-5 2.72 µM | M14 5.28 µM

COc1cc(/C=C2\C[C@H]3[C@@H]4CC=C5C[C@@H](N6CCCC6)CC[C@]5(C)[C@H]4CC[C@]3(C)[C@H]2OC(C)=O)cc(OC)c1OC
inactive: HOP-92 10.3 µM | BT-549 14.9 µM | SW-620 14.8 µM | SNB-75 15.4 µM | 786-0 11.3 µM | CCRF-CEM 12.9 µM | MDA-MB-435 12.9 µM | MCF7 15.9 µM | SN12C 14 µM | SK-MEL-2 17.7 µM | OVCAR-3 15.5 µM | HCT-116 15.5 µM | EKVX 14.3 µM | NCI-H522 16.7 µM | SF-295 12.8 µM | TK-10 20.6 µM | IGROV-1 16.3 µM | SK-MEL-5 15.1 µM | M14 15.8 µM

CCCCC(=O)Nc1ccc2c(C)cc(-c3ccc(-c4cc(-c5ccc(C)cc5)cc(-c5ccc(-c6cc(C)c7ccc(NC(=O)CCCC)nc7n6)cc5)n4)cc3)nc2n1
inactive: HOP-92 78.9 µM | BT-549 > 100 µM | SNB-75 > 100 µM | 786-0 > 100 µM | CCRF-CEM > 100 µM | MDA-MB-435 > 100 µM | MCF7 > 100 µM | SN12C > 100 µM | SK-MEL-2 > 100 µM | OVCAR-3 > 100 µM | HCT-116 > 100 µM | EKVX > 100 µM | NCI-H522 > 100 µM | SF-295 > 100 µM | TK-10 > 100 µM | SK-MEL-5 > 100 µM | M14 > 100 µM

CC12CCC(CC1(Cl)Cl)C2 (centres undefined)
inactive: HOP-92 > 100 µM | BT-549 > 100 µM | SW-620 > 100 µM | SNB-75 > 100 µM | 786-0 > 100 µM | CCRF-CEM > 100 µM | MDA-MB-435 > 100 µM | MCF7 > 100 µM | SN12C > 100 µM | SK-MEL-2 > 100 µM | OVCAR-3 > 100 µM | EKVX > 100 µM | NCI-H522 > 100 µM | SF-295 > 100 µM | TK-10 > 100 µM | IGROV-1 > 100 µM | SK-MEL-5 > 100 µM | M14 > 100 µM

C/C=C1/CN2CCc3c([nH]c4ccccc34)[C@@H]2C[C@@H]1Cc1nccc2c1[nH]c1cc(O)ccc12
inactive: HOP-92 6.38 µM | BT-549 13.9 µM | SW-620 2.82 µM | SNB-75 1.64 µM | 786-0 1.61 µM | CCRF-CEM 2.9 µM | MDA-MB-435 1.9 µM | MCF7 2.62 µM | SN12C 1.66 µM | SK-MEL-2 2.05 µM | OVCAR-3 2.39 µM | HCT-116 1.67 µM | EKVX 2.07 µM | NCI-H522 1.89 µM | SF-295 1.9 µM | TK-10 1.95 µM | SK-MEL-5 1.57 µM | M14 2.16 µM

CCN1CC2(C)CCC(OC)C34C5CC6CCC(O)(C5C(=O)O6)C(C(O)C23)C14 (centres undefined)
inactive: HOP-92 > 100 µM | BT-549 > 100 µM | SW-620 > 100 µM | SNB-75 > 100 µM | 786-0 > 100 µM | CCRF-CEM > 100 µM | MDA-MB-435 > 100 µM | MCF7 > 100 µM | SK-MEL-2 > 100 µM | OVCAR-3 > 100 µM | HCT-116 > 100 µM | EKVX > 100 µM | NCI-H522 > 100 µM | SF-295 > 100 µM | TK-10 > 100 µM | IGROV-1 > 100 µM | SK-MEL-5 > 100 µM | M14 > 100 µM

Cc1ccc(Nc2nc(O)c3[nH]cnc3n2)cc1CO
inactive: HOP-92 8.79 µM | BT-549 14.9 µM | SW-620 17.5 µM | SNB-75 14.7 µM | 786-0 15.7 µM | CCRF-CEM 16.1 µM | MDA-MB-435 15.8 µM | MCF7 16.6 µM | SK-MEL-2 16.6 µM | OVCAR-3 15.7 µM | HCT-116 12.1 µM | EKVX 14.8 µM | NCI-H522 11.6 µM | SF-295 15.9 µM | TK-10 18 µM | IGROV-1 14.9 µM | SK-MEL-5 16.5 µM | M14 12.8 µM
